14 molecules from patent US10421779B2, “Carbazole compound having anti-virus activity” (priority 2016, dated 2019) can be followed below.

What all share (assay type): cell-based
Test [1] concerns hepatitis C virus mutant L31V of the NS5A region. Briefly: Efficacy on resistant mutant L31V. Conditions: read-out: EC50 L31V. An excerpt: (§1) As a mutant resistant to hepatitis C virus, L31V and Y93H of the NS5A region, and double mutants thereof were applied.
Test [2] has as its system hepatitis C virus mutant Y93H of the NS5A region. Briefly: Efficacy on resistant mutant Y93H. To be noted: read-out: EC50 Y93H.
From the text: as §1

The test system of test [3] is hepatitis C virus double mutant L31V and Y93H of the NS5A region. Briefly: Efficacy on resistant double mutant (L31V and Y93H). To be noted: read-out: EC50 Double mutant.
From the text: as §1

Test [4] relates to HCV genotype 1 b (HCV replicon system). Kind of test: HCV replicon system genotype 1b, Renilla luciferase activity. Conditions: Hepatitis C virus, 72 h; HCV genotype 1b replicon, Rluc, 3 days; read-out: Replicon EC50 1b type. How it is done:
(§2) From human liver cells (Huh7.5.1 cell) infected by hepatitis C virus, the anti-virus effects by the compound of the present invention were measured. From HCV genotype 1 b (HCV replicon system), genotype 2a (HCV cell culture system, HCVcc), and genotype 3a, the EC50 values were measured.
In order to measure the EC50 value from HCV genotype 1 b, the degrees of HCV replication inhibitory activities of an experimental compound were measured. The EC50 value was measured by treating the experimental compound with the HCV replicon systems (genotype 1 b) having Renilla luciferase (Rluc) genes and genotype 1 b non-structure genes under various concentration conditions to compare the activity degree of the luciferase after 3 days elapsed time with that of the control.
Background: Replicon systems follow genome replication, usually without infectious particles.

In test [5] the test system is HCV genotype 2a (HCV cell culture system, HCVcc). Kind of test: HCVcc genotype 2a JFH1 (JFH 5a-Rluc) virus in Huh7.5.1 cells, luciferase assay. Conditions: Hepatitis C virus, Huh-7.5.1, 72 h, HCV genotype 2a JFH 5a-Rluc, 3 days, read-out: Replicon EC50 2a type. How it is done: as §2
In order to measure the EC50 value from HCV genotype 2a, a luciferase assay was used. A JFH1 clone (JFH 5a-Rluc) virus constructed to have a Renilla luciferase enzyme (Rluc) gene in NS5A protein was infected with Huh7.5.1 cell being a host cell, and then the EC50 value was measured by taking cells grown for 3 days by treating the experimental compound under various concentration conditions, and analyzing the activity degree of the luciferase.

For test [6], the system named is HCV genotype 3a (HCV replicon system). Kind of test: HCV replicon system genotype 3a, firefly luciferase activity. To be noted: Hepatitis C virus, 72 h; HCV genotype 3a replicon, Fluc, 3 days; read-out: Replicon EC50 3a type. The protocol:
as §2
In order to measure the EC50 value from genotype 3a, the value was measured through the luciferase activity. A HCV replicon system having firefly luciferase (Fluc) genes and genotype 3a non-structure genes was used. The HCV replicon system having the genes as described above was used to treat the experimental compound under various concentration conditions, and then 3 days later, the EC50 value was measured by comparing the luciferase activity with that of the control.

As to `COC(=O)N[C@H](C(=O)N1CCC[C@H]1c1nc(-c2ccc(-c3ccc(-c4c[nH]c([C@@H]5CCCN5C(=O)[C@@H](NC(=O)OC)C(C)C)n4)cc3)cc2)c[nH]1)C(C)C` [BMS-790052, reference compound], the results for the EC50 in test [1], in test [2] and in test [3] were 0.1 to 1 nM, 1 to 10 nM and > 1000 nM, respectively.

In the case of `COC(=O)N[C@@H](C(=O)N1CCC[C@H]1C(=O)Nc1ccc2c3ccc(NC(=O)[C@@H]4CCCN4C(=O)[C@H](NC(=O)OC)c4ccccc4)cc3n(Cc3ccccc3)c2c1)c1ccccc1` [Example 13, dimethyl ((1R,1′R)-((2S,2′S)-(((9-benzyl-9H-carbazole-2,7-diyl)bis(azanediyl))bis(carbonyl))bis(pyrrolidine-2,1-diyl))bis(2-oxo-1-phenylethane-2,1-diyl))dicarbamate], the EC50 (in general, the concentration needed to bring the measured effect to its halfway point) in test [4] is 0.0246 nM; in test [1] it was 0.1 to 1 nM; in test [2], 100 to 1000 nM; in test [3], > 1000 nM.

With `COC(=O)N[C@@H](C(=O)N1CCC[C@H]1C(=O)Nc1ccc2c3ccc(NC(=O)[C@@H]4CCCN4C(=O)[C@H](NC(=O)OC)c4ccccc4)cc3n(Cc3ccc(OC)cc3)c2c1)c1ccccc1` [Example 14, dimethyl ((1R,1′R)-((2S,2′S)-(((9-(4-methoxybenzyl)-9H-carbazole-2,7-diyl)bis(azanediyl))bis(carbonyl))bis(pyrrolidine-2,1-diyl))bis(2-oxo-1-phenylethane-2,1-diyl))dicarbamate], the 50% effective concentration (EC50) was 0.0203 nM in test [4], 0.1 to 1 nM in test [1], 100 to 1000 nM in test [2] and > 1000 nM in test [3].

Take `CCCCCCCCn1c2cc(NC(=O)[C@@H]3CCCN3C(=O)[C@H](NC(=O)OC)c3ccccc3)ccc2c2ccc(NC(=O)[C@@H]3CCCN3C(=O)[C@H](NC(=O)OC)c3ccccc3)cc21` [Example 26, dimethyl ((1R,1′R)-((2S,2′S)-(((9-octyl-9H-carbazole-2,7-diyl)bis(azanediyl))bis(carbonyl))bis(pyrrolidine-2,1-diyl))bis(2-oxo-1-phenylethane-2,1-diyl))dicarbamate]: the results for the EC50 in test [4], in test [5] and in test [1] were 0.00792 nM, 10 to 100 nM and 1 to 10 nM, respectively.

As to `CCCCCCCCCCCCn1c2cc(NC(=O)[C@@H]3CCCN3C(=O)[C@H](NC(=O)OC)c3ccccc3)ccc2c2ccc(NC(=O)[C@@H]3CCCN3C(=O)[C@H](NC(=O)OC)c3ccccc3)cc21` [Example 27, dimethyl ((1R,1′R)-((2S,2′S)-(((9-dodecyl-9H-carbazole-2,7-diyl)bis(azanediyl))bis(carbonyl))bis(pyrrolidine-2,1-diyl))bis(2-oxo-1-phenylethane-2,1-diyl))dicarbamate], the values for the EC50 in test [4], in test [5] and in test [1] were 0.00185 nM, 10 to 100 nM and 0.1 to 1 nM, respectively.

As for `CCCC(c1ccccc1)n1c2cc(NC(=O)[C@@H]3CCCN3C(=O)[C@H](NC(=O)OC)c3ccccc3)ccc2c2ccc(NC(=O)[C@@H]3CCCN3C(=O)[C@H](NC(=O)OC)c3ccccc3)cc21` (stereo partly drawn) [Example 28, dimethyl ((1R,1′R)-((2S,2′S)-(((9-(1-phenylbutyl)-9H-carbazole-2,7-diyl)bis(azanediyl))bis(carbonyl))bis(pyrrolidine-2,1-diyl))bis(2-oxo-1-phenylethane-2,1-diyl))dicarbamate], the EC50 in test [4] is 0.00452 nM; in test [5], 1 to 10 nM; in test [1], < 0.1 nM.

As for `CCCCCCOc1ccc(Cn2c3cc(NC(=O)[C@@H]4CCCN4C(=O)[C@H](NC(=O)OC)c4ccccc4)ccc3c3ccc(NC(=O)[C@@H]4CCCN4C(=O)[C@H](NC(=O)OC)c4ccccc4)cc32)cc1` [Example 31, dimethyl ((1R,1′R)-((2S,2′S)-(((9-(4-(hexyloxy)benzyl)-9H-carbonyl-2,7-diyl)bis(azanediyl))bis(carbonyl))bis(pyrrolidine-2,1-diyl))bis(2-oxo-1-phenylethane-2,1-diyl))dicarbamate], the EC50 in test [4] is ~0.01 nM; in test [5], 1 to 10 nM; in test [6], ~0.01 nM; in test [1], < 0.1 nM; in test [2] it was 10 to 100 nM.

Regarding `COC(=O)N[C@@H](C(=O)N1CCC[C@H]1C(=O)Nc1ccc2c3ccc(NC(=O)[C@@H]4CCCN4C(=O)[C@H](NC(=O)OC)c4ccccc4)cc3n(CCCCCCCCCCN3CCOCC3)c2c1)c1ccccc1` [Example 34, dimethyl ((1R,1′R)-((2S,2′S)-(((9-(10-morpholinodecyl)-9H-carbazole-2,7-diyl)bis(azanediyl))bis(carbonyl))bis(pyrrolidine-2,1-diyl))bis(2-oxo-1-phenylethane-2,1-diyl))carbamate], the EC50 was 0.01 to 0.1 nM in test [4]; 1 to 10 nM in test [5]; 0.01 to 0.1 nM in test [6]; < 0.1 nM in test [1]; 100 to 1000 nM in test [2].

Consider `CCCCOc1ccc(Cn2c3cc(NC(=O)[C@@H]4CCCN4C(=O)[C@H](NC(=O)OC)c4ccccc4)ccc3c3ccc(NC(=O)[C@@H]4CCCN4C(=O)[C@H](NC(=O)OC)c4ccccc4)cc32)cc1` [Example 36, dimethyl ((1R,1′R)-((2S,2′S)-(((9-(4-butoxybenzyl)-9H-carbazole-2,7-diyl)bis(azanediyl))bis(carbonyl))bis(pyrrolidine-2,1-diyl))bis(2-oxo-1-phenylethane-2,1-diyl))dicarbamate], for which the EC50 in test [4] was 0.00326 nM; in test [6], 0.0126 nM; in test [1], 0.1 to 1 nM; in test [2], 100 to 1000 nM.

Turning to `COC(=O)N[C@@H](C(=O)N1CCC[C@H]1C(=O)Nc1ccc2c3ccc(NC(=O)[C@@H]4CCCN4C(=O)[C@H](NC(=O)OC)c4ccccc4)cc3n(Cc3cccc(OC4CCCC4)c3)c2c1)c1ccccc1` [Example 39, dimethyl ((1R,1′R)-((2S,2′S)-(((9-(3-(cyclopentyloxy)benzyl)-9H-carbazole-2,7-diyl)bis(azanediyl))bis(carbonyl))bis(pyrrolidine-2,1-diyl))bis(2-oxo-1-phenylethane-2,1-diyl))dicarbamate], the EC50 in test [4] was 0.00113 nM; in test [6] it was 0.00638 nM; in test [1], 0.1 to 1 nM; in test [2], 100 to 1000 nM.

Turning to `COCCOc1cccc(Cn2c3cc(NC(=O)[C@@H]4CCCN4C(=O)[C@H](NC(=O)OC)c4ccccc4)ccc3c3ccc(NC(=O)[C@@H]4CCCN4C(=O)[C@H](NC(=O)OC)c4ccccc4)cc32)c1` [Example 41, dimethyl ((1R,1′R)-((2S,2′S)-(((9-(3-(2-methoxyethoxy)benzyl)-9H-carbazole-2,7-diyl)bis(azanediyl))bis(carbonyl))bis(pyrrolidine-2,1-diyl))bis(2-oxo-1-phenylethane-2,1-diyl))dicarbamate], the EC50 is 0.00965 nM in test [4], 0.0419 nM in test [6], 0.1 to 1 nM in test [1] and > 1000 nM in test [2].

For `CCCCCCCCCC(c1ccccc1)n1c2cc(NC(=O)[C@@H]3CCCN3C(=O)[C@H](NC(=O)OC)c3ccccc3)ccc2c2ccc(NC(=O)[C@@H]3CCCN3C(=O)[C@H](NC(=O)OC)c3ccccc3)cc21` (stereo partly drawn) [Example 42, dimethyl ((1R,1′R)-((2S,2′S)-(((9-(1-phenyldecyl)-9H-carbazole-2,7-diyl)bis(azanediyl))bis(carbonyl))bis(pyrrolidine-2,1-diyl))bis(2-oxo-1-phenylethane-2,1-diyl))dicarbamate], the EC50 was 0.00124 nM in test [4]; 10 to 100 nM in test [5]; 0.0329 nM in test [6]; 0.1 to 1 nM in test [1]; 100 to 1000 nM in test [2].

For `CCCCn1c2cc(NC(=O)[C@@H]3CCCN3C(=O)[C@H](NC(=O)OC)c3ccccc3)ccc2c2ccc(-c3c[nH]c([C@@H]4CCCN4C(=O)[C@H](NC(=O)OC)c4ccccc4)n3)cc21` [Example 51, methyl ((R)-2-((S)-2-((9-butyl-7-(2-((S)-1-((R)-2-((methoxycarbonyl)amino)-2-phenylacetyl)pyrrolidine-2-yl)-1H-imidazole-4-yl)-9H-carbazole-2-yl)carbamoyl)pyrrolidine-1-yl)-2-oxo-1-phenylethyl)carbamate], the figures for the EC50 in test [4], in test [5] and in test [6] were 0.0145 nM, 0.387 nM and 0.193 nM, respectively.

As to `CCCCn1c2cc(NC(=O)[C@@H]3CCCN3C(=O)[C@H](NC(=O)OC)c3ccccc3)ccc2c2ccc(-c3c[nH]c([C@@H]4CCCN4C(=O)[C@@H](NC(=O)OC)C(C)C)n3)cc21` [Example 52, methyl ((R)-2-((S)-2-((9-butyl-7-(2-((S)-1-((methoxycarbonyl)-L-valyl)pyrrolidine-2-yl)-1H-imidazole-4-yl)-9H-carbazole-2-yl)carbamoyl)pyrrolidine-1-yl)-2-oxo-1-phenylethyl)carbamate], the results for the EC50 in test [4], in test [5] and in test [6] were 0.0123 nM, 0.171 nM and 0.148 nM, respectively.
